Reference: article PMC5998080, “Structural and functional analysis of mRNA export regulation by the nuclear pore complex” (Nature Communications, 2018)

T1: S. cerevisiae Gle1^CTD•Nup42^GBM•Dbp5 (Saccharomyces cerevisiae, UniProt P20449+Q12315)
T1 construct: with Nucleoporin NUP42
T1 sequence (Q12315 243-538): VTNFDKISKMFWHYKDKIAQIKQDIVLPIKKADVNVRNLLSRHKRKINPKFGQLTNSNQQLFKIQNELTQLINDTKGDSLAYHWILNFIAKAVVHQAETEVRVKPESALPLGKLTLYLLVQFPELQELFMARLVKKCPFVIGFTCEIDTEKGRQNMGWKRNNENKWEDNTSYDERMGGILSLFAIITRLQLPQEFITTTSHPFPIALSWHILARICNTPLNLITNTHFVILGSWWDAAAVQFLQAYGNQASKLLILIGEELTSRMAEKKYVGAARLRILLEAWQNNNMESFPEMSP
T1 sequence (P20449 1-482): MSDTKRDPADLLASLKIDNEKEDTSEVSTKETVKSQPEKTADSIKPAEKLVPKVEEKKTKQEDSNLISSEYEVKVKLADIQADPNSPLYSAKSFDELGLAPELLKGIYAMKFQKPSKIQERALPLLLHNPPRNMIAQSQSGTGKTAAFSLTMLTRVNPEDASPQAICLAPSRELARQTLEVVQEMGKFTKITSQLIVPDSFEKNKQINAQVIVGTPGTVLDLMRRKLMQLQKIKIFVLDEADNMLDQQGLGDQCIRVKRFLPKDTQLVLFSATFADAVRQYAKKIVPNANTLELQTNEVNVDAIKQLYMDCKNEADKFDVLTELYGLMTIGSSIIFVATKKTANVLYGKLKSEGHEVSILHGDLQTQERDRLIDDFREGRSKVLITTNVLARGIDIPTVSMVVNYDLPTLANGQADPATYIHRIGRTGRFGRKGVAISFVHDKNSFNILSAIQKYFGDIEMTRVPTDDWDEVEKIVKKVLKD
T1 sequence (P49686 397-430 partner): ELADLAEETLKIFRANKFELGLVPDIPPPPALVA

T2: S. cerevisiae Gle1^CTD (Saccharomyces cerevisiae, UniProt Q12315)
T2 construct: C-terminal domain alone (borders in supplement); His6-scGle1CTD from E. coli, tag cleaved
T2 sequence (Q12315 243-538): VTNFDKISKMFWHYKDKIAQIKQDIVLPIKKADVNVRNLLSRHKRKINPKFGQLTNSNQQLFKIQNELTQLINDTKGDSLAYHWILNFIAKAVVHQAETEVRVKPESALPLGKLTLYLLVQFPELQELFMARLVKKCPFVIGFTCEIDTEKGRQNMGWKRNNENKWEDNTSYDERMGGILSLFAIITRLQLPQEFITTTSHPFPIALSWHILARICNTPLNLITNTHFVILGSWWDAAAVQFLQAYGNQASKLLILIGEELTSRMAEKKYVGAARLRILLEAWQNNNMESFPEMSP

T3: S. cerevisiae Gle1^CTD•Nup42^GBM (Saccharomyces cerevisiae, UniProt Q12315)
T3 construct: E. coli; His6 tag cleaved with PreScission; with Nucleoporin NUP42
T3 sequence (Q12315 243-538): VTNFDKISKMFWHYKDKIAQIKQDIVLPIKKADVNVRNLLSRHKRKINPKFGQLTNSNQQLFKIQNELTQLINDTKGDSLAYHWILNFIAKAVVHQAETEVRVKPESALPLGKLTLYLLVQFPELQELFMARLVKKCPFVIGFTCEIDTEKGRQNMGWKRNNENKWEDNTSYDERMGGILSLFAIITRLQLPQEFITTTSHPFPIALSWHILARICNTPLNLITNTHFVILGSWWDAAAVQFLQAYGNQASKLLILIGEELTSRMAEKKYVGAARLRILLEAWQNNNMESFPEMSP
T3 sequence (P49686 397-430 partner): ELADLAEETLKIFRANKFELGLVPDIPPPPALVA

T4: H. sapiens DDX19 (human, UniProt Q9UMR2 1-479)
T4 construct: human DEAD-box helicase DDX19 (the printed residue numbers run to 479); also called hsDDX19; wild-type DDX19; source: E. coli BL21-CodonPlus(DE3)-RIL, purified (Ni-NTA, HiTrap Q, Superdex 200); not shown: His6, N-terminal, cleaved
T4 sequence (looked up): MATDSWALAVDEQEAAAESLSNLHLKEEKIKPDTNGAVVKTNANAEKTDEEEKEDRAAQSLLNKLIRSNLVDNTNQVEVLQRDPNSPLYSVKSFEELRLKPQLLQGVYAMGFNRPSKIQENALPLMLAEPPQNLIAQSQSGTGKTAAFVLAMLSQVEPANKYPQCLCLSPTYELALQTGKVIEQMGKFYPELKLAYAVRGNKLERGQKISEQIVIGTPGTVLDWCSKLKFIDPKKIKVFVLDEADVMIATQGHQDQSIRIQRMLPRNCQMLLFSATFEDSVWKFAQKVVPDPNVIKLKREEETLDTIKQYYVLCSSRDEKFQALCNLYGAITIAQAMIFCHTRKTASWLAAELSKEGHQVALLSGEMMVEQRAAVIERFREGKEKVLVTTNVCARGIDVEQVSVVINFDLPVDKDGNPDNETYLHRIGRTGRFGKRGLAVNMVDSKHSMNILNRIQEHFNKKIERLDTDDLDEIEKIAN

T5: H. sapiens DDX19^∆N53 (residues 54–479) (human, UniProt Q9UMR2 54-479)
T5 construct: human DEAD-box helicase DDX19 without the flexible N-terminal extension, residues 54-479; source: E. coli BL21-CodonPlus(DE3)-RIL, purified (Ni-NTA, HiTrap Q, Superdex 200); not shown: His6, N-terminal, cleaved
T5 sequence (looked up): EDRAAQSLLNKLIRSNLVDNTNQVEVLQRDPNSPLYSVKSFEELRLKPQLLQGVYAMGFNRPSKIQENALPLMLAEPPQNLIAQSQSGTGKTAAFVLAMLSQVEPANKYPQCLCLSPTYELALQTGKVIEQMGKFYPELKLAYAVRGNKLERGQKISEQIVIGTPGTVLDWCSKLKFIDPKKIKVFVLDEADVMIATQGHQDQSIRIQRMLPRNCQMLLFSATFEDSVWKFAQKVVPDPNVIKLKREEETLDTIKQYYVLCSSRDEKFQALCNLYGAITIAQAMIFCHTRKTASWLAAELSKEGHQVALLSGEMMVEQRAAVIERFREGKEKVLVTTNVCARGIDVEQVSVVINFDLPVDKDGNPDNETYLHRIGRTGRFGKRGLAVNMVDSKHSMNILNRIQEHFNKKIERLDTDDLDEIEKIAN


Legend:
[1] = target: T1, S. cerevisiae Gle1^CTD•Nup42^GBM•Dbp5; experiment: size exclusion chromatography, complex formation; assay type: binding; settings: 0.5 mM IP6, 20 mM Tris pH 8.0, 100 mM NaCl, 5 mM DTT; IP6 bridges Gle1 and Dbp5
[2] = target: T6, C. thermophilum Gle1^CTD•Nup42^GBM (Thermochaetoides thermophila, UniProt G0S7F3); experiment: X-ray crystal structure ([…] Å); assay type: binding; settings: pH 6.3 MES, zinc sulfate; pocket on Gle1
T6 construct: E. coli; tags cleaved; with Nucleoporin NUP42

S. cerevisiae Gle1^CTD = target: T2, S. cerevisiae Gle1^CTD; experiment: differential scanning fluorimetry; assay type: binding; settings: Tm without to with IP6 (25 µM); no Nup42; 20 mM Tris pH 8.0, 100 mM NaCl, 5 mM DTT
[3] = target: T3, S. cerevisiae Gle1^CTD•Nup42^GBM; experiment: isothermal titration calorimetry; assay type: binding
H. sapiens DDX19 = target: T4, H. sapiens DDX19; experiment: SEC; human DDX19 with Gle1^CTD•Nup42^GBM, without and with 0.5 mM IP6 (IP6 partially reduced complex formation); 20 mM TRIS (pH 8.0), 100 mM NaCl, 5 mM DTT; settings: both partners purified
[4] = target: T5, H. sapiens DDX19^∆N53 (residues 54–479); experiment: crystal structure; H. sapiens Gle1^CTD•Nup42^GBM•DDX19^∆N53, reconstituted from equimolar purified Gle1^CTD•Nup42^GBM and DDX19^∆N53; with ADP 3.6 Å or AMP-PNP•Mg^2+ 3.4 Å; settings: both partners purified

T6 sequence (G0S381 441-557): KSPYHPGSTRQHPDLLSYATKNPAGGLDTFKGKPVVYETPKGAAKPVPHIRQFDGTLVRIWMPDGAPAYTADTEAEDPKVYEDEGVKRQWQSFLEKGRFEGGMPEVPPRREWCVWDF
T6 sequence (G0S7F3 216-529): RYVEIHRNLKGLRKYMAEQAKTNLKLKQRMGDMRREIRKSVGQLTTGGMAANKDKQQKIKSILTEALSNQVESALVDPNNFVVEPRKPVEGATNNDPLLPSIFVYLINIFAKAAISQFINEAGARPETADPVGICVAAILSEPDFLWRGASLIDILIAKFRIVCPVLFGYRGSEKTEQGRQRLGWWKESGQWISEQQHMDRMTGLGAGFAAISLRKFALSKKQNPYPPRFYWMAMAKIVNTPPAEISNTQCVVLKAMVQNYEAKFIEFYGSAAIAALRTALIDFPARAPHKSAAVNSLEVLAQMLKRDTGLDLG

Tm (S. cerevisiae Gle1^CTD)	Kd [3]	binding result (H. sapiens DDX19)	binding result [4]	Molecule	size exclusion chromatography, complex formation [1]	X-ray crystal structure (2.17 Å) [2]
22 to 37 °C	~3 nM			O=P(O)(O)O[C@H]1[C@H](OP(=O)(O)O)[C@@H](OP(=O)(O)O)[C@H](OP(=O)(O)O)[C@@H](OP(=O)(O)O)[C@H]1OP(=O)(O)O [IP6]	Dbp5 and Gle1^CTD•Nup42^GBM only formed a complex in the presence of IP6	IP6 binds to C. thermophilum Gle1^CTD and to S. cerevisiae Gle1^CTD in a similar orientation
		binds	binds	H. sapiens Gle1^CTD•Nup42^GBM complex (complex, human, human Gle1 (splice variant Gle1B), C-terminal domain, residues 382-698; Chains as m16 and m17; also called hsGle1^CTD•His6-hsNup42^GBM; source: E. coli BL21-CodonPlus(DE3)-RIL, co-expressed, purified (Ni-NTA, heparin, Superdex 75); not shown: His6, N-terminal, cleaved) chain 1: VQDITMQWYQQLQDASMQCVLTFEGLTNSKDSQAKKIKMDLQKAATIPVSQISTIAGSKLKEIFDKIHSLLSGKPVQSGGRSVSVTLNPQGLDFVQYKLAEKFVKQGEEEVASHHEAAFPIAVVASGIWELHPRVGDLILAHLHKKCPYSVPFYPTFKEGMALEDYQRMLGYQVKDSKVEQQDNFLKRMSGMIRLYAAIIQLRWPYGNRQEIHPHGLNHGWRWLAQILNMEPLSDVTATLLFDFLEVCGNALMKQYQVQFWKMLILIKEDYFPRIEAITSSGQMGSFIRLKQFLEKCLQHKDIPVPKGFLTSSFWRS chain 2: IIATDNVLFTPRDKLTVEELEQFQSKKFTLGKIPLKPPPLELLNV		
		binds	binds	H. sapiens Gle1 C-terminal domain (Gle1^CTD, residues 382–698) (domain or fragment, human, UniProt Q53GS7 382-698, looked up, human Gle1 (splice variant Gle1B), C-terminal domain, residues 382-698; also called hsGle1^CTD; source: E. coli BL21-CodonPlus(DE3)-RIL, co-expressed with His6-hsNup42^GBM, purified (Ni-NTA, heparin, Superdex 75)) VQDITMQWYQQLQDASMQCVLTFEGLTNSKDSQAKKIKMDLQKAATIPVSQISTIAGSKLKEIFDKIHSLLSGKPVQSGGRSVSVTLNPQGLDFVQYKLAEKFVKQGEEEVASHHEAAFPIAVVASGIWELHPRVGDLILAHLHKKCPYSVPFYPTFKEGMALEDYQRMLGYQVKDSKVEQQDNFLKRMSGMIRLYAAIIQLRWPYGNRQEIHPHGLNHGWRWLAQILNMEPLSDVTATLLFDFLEVCGNALMKQYQVQFWKMLILIKEDYFPRIEAITSSGQMGSFIRLKQFLEKCLQHKDIPVPKGFLTSSFWRS		
